Measured values from patent publication US20180228897A1, “Compositions for Vapor Phase Delivery of Active Compounds, Methods of Making and Using Same, and Kits Comprising Same” (Atmovita, LLC, priority 2015, published 2018).
Blank lines part the entries; values can stand above or below the compound they belong to. Peptide text beside a SMILES is read from it. * marks the point of attachment. PhAc = O=C(Cc1ccccc1)*

Experiment: Preparation of compositions (Example 3): appearance and stability of the solution
Assay type: physicochemical
[1] = 0.693 g L-arginine and 0.693 g l-theanine in 0.75 ml stock, 2.5 ml water, 0.25 ml flavored glycerin

SMILES: Cc1cc2nc3c(=O)[nH]c(=O)nc-3n(C[C@H](O)[C@H](O)[C@H](O)CO)c2cc1C [riboflavin]
appearance of composition (18 mg riboflavin, 9.26 mg l-arginine in 1.5 ml stock and 2.0 ml of 0.1 mol Na2CO3): clear solution

SMILES: N=C(N)NCCC[C@H](N)C(=O)O [L-arginine]
appearance of composition [1]: clear and flavored solution

The next lines start with the values.

appearance of composition (0.335 g noopept, 58 mg cinnamic acid in 2.0 ml stock, 2.0 ml ethanol, 0.1 ml flavored glycerin): clear and flavored solution
SMILES: CCOC(=O)CNC(=O)[C@@H]1CCCN1C(=O)Cc1ccccc1 [noopept] (PhAc-Pro-Gly-OEt)

appearance of composition [1]: clear and flavored solution
SMILES: CCNC(=O)CC[C@H](N)C(=O)O [l-theanine]

appearance of composition (0.2 g vitamin B5 in 1.5 ml stock, 2.0 ml fruit flavored vodka, 0.1 ml flavored glycerin): clear and flavored solution
SMILES: CC(C)(CO)[C@@H](O)C(=O)NCCC(=O)O [Pantothenic Acid]
